Measured values published in patent US20160113890A1, “COMPOSITION FOR STIMULATING NEOVASCULARIZATION AT A SITE IN A SUBJECT COMPRISING DAPSONE AND USE THEREOF” (Samsung Electronics Co., Ltd., priority 2014, published 2016).

Columns and labels:
[1] = system: C57BL/6 mice; test: Immunohistochemical assay (anti-PECAM-1) on mouse ear skin whole-mount; format: in vivo
Experimental: (§1) C57BL/6 mice (hereinafter, also referred to as “B6”) at ages of 7 months and 24 months (female n=18, male n=12, Korean Basic Science Institute) were maintained according to the guideline of the Laboratory Animal Research Center of Sungkyunkwan University School of Medicine. The mice were allowed to have free access to water and feed. Each group of mice (n=5) drank 0.0, 0.5, or 2.0 mg/kg/day of dapsone (available from Tai Guk Pharm. Co.) for 3 months.
After 3 months, ear skin from both ears, trachea, both retinas, both kidneys, and pancreas were obtained from a mouse selected from each group of mice. In order to obtain these organs, the mouse was anesthetized by intraperitoneal injection of 100 mg/kg of […] (Entobal®) based on the weight of the mouse, […] of 1% paraformaldehyde was flowed through the heart to remove the blood in the body of the mouse. The organs were surgically obtained, and tissue from each of the organs was fixed in 4% of paraformaldehyde for 24 hours to prepare a frozen section having a thickness of 10 um. Immunofluorescence staining using anti-PECAM-1 antibody was performed on a sample of the frozen section. For the immunofluorescence staining, the sample was blocked in a solution containing 5% donkey serum in phosphate buffered solution (PBS) containing 0.3% Triton-X 100 (0.3% PBST) for 1 hour. The anti-PECAM-1 antibody produced from American hamster was added to the solution to allow a primary reaction with antigen of the tissue at 4° C. for 12 hours. The sample was washed 6 times for 10 minutes with 0.3% PBS-T, and an anti-American hamster-Alexa594 antibody was added to 0.3 PBS-T to allow a secondary reaction with the anti-PECAM-1 antibody at 4° C. for 12 hours. The sample was washed 6 times for 10 minutes, attached to a slide glass, and thus image of the stained sample was obtained by a Carl Zeiss LSM710 confocal microscope. […] The measured fluorescent density denotes a density of endothelial cells, that is, blood vessels. […]

[2] = system: C57BL/6 mice; test: Fluorescein-lectin tracking and immunohistochemical assay on kidney section; format: in vivo, mouse; settings: old mice, 2.0 mg/kg/d for 3 months
Experimental: as §1
(§2) After 3 months, ear skin from both ears, trachea, both retinas, both kidneys, and pancreas were obtained from a mouse selected from each group of mice. In order to obtain these organs, the mouse was anesthetized by intraperitoneal injection of 100 mg/kg of […] (Entobal®) based on the weight of the mouse, […] of 1% paraformaldehyde was flowed through the heart to remove the blood in the body of the mouse. The organs were surgically obtained, and tissue from each of the organs was fixed in 4% of paraformaldehyde for 24 hours to prepare a frozen section having a thickness of 10 um. Immunofluorescence staining using anti-PECAM-1 antibody was performed on a sample of the frozen section. […] The measured fluorescent density denotes a density of endothelial cells, that is, blood vessels. […]

[3] = system: VEGF; test: Microarray analysis of gene expression in soleus muscle (VEGF); format: in vivo, mouse; settings: middle (15 month-old) and old (20 month-old) mice, 2.0 mg/kg/d for 3 months
Experimental: (§3) In FIG. 9, a vertical axis denotes an expression amount of VEGF or Tie2 gene (fluorescent intensity: arbitrary unit), and a horizontal axis denotes a mouse subject. […] The microarray analysis was performed by using Agilent's Mouse Oligo Microarray (44K, Agilent Technology). 5 months-old, 15 months-old, and 20 months-old C57BL/6J mice had 2 mg/kg/d of dapsone for 3 months. […] After the 3 months, the 8 months-old, 18 months-old, and 23 months-old mice were anesthetized by injecting Entobar (sodium pentobarbital, 100 mg/kg per body weight), and then soleus muscle taken therefrom for microarray analysis was frozen. Ribonucleic acid was isolated from the muscle and used for the microarray analysis.

[4] = system: C57BL/6 mice; test: Immunohistochemical assay (anti-PECAM-1) on trachea whole-mount of mouse; format: in vivo
Experimental: as §1
After 3 months, ear skin from both ears, trachea, both retinas, both kidneys, and pancreas were obtained from a mouse selected from each group of mice. In order to obtain these organs, the mouse was anesthetized by intraperitoneal injection of 100 mg/kg of […] (Entobal®) based on the weight of the mouse, […] of 1% paraformaldehyde was flowed through the heart to remove the blood in the body of the mouse. The organs were surgically obtained, and tissue from each of the organs was fixed in 4% of paraformaldehyde for 24 hours to prepare a frozen section having a thickness of 10 um. Immunofluorescence staining using anti-PECAM-1 antibody was performed on a sample of the frozen section. For the immunofluorescence staining, the sample was blocked in a solution containing 5% donkey serum in phosphate buffered solution (PBS) containing 0.3% Triton-X 100 (0.3% PBST) for 1 hour. The anti-PECAM-1 antibody produced from American hamster was added to the solution to allow a primary reaction with antigen of the tissue at 4° C. for 12 hours. The sample was washed 6 times for 10 minutes with 0.3% PBS-T, and an anti-American hamster-Alexa594 antibody was added to 0.3 PBS-T to allow a secondary reaction with the anti-PECAM-1 antibody at 4° C. for 12 hours. The sample was washed 6 times for 10 minutes, attached to a slide glass, and thus image of the stained sample was obtained by a Carl Zeiss LSM710 confocal microscope. Each of the images was sequentially taken with respect to the tissue having a thickness in a range of about 100 um to about 300 um as an axis, and then all the sub-images were projected in a z-axis direction. Thus the image is a projection image. Platelet endothelial cell adhesion molecule (PECAM-1) is also referred to as cluster of differentiation 31 (CD31), which is found in platelets or monocytes and on a surface of some types of T-cells, and constitutes most of endothelial cell intercellular junction. […] The measured fluorescent density denotes a density of endothelial cells, that is, blood vessels. Also, in terms of kidney tissue sections and pancreas tissue section, Fluorescein labeled Lycopersicon esculentum (tomato) lectin (hereinafter, also referred to as “Fluorescein-lectin”) was used as a tracer to verify blood vessel functionality of the sample. […]

[5] = system: VEGFR2; test: Phosphorylation-specific antibody array of soleus muscle protein; format: in vivo, mouse; settings: 20 month-old C57BL/6J mice, 2.0 mg/kg/d for 3 months
Experimental: In FIG. 10, a vertical axis denotes the amount of protein expressed in the experimental group compared to the control group (fluorescent intensity: arbitrary unit), and a horizontal axis denotes the type of phosphorylated protein measured, where the description in parentheses informs residue and location of the phosphorylated amino acid. […] The microarray analysis was performed by using a Phospho Explorer Antibody array (1312 antibodies, FULL MOON Biosystems), soleus muscle of the mice was obtained, protein was isolated therefrom, and used for the microarray analysis. In FIG. 10, p-VR1 and p-VR2 respectively denote phosphorylated VEGFR1 and VEGFR2.

[6] = system: Tie2; test: Microarray analysis of gene expression in soleus muscle (Tie2); format: in vivo, mouse; settings: middle (15 month-old) and old (20 month-old) mice, 2.0 mg/kg/d for 3 months
Experimental: as §3

[7] = system: C57BL/6 mice; test: Fluorescein-lectin tracking and immunohistochemical assay on pancreas section; format: in vivo, mouse; settings: old mice, 2.0 mg/kg/d for 3 months
Experimental: as §1, §2

[8] = old mice (27 months-old), 2.0 mg/kg/d for 3 months (O2 vs O0)

In the case of `Nc1ccc(S(=O)(=O)c2ccc(N)cc2)cc1` [dapsone, 4-[(4-aminobenzene)sulfonyl]aniline], the “blood vessel density (PECAM-1 Alexa 594 fluorescence intensity) vs control group” value (“blood vessel density … vs control group” below) [1, 8] was “significant difference”, the “blood vessel density … vs control group” value ([1]; young mice (7 months-old), 0.5 mg/kg/d for 3 months (Y0.5 vs Y0)) was “no significant difference” and the “blood vessel density … vs control group” value ([1]; young mice (7 months-old), 2.0 mg/kg/d for 3 months (Y2 vs Y0)) was “no significant difference”. For the same compound, the “blood vessel functionality (Fluorescein-lectin perfusion of PECAM-1 positive vessels)” value [2] was “recovered to the similar level of the control group”, the “expression of VEGF gene vs control groups” value [3] was “increased” and the “blood vessel density … vs control group” value ([4]; old mice (27 months-old), 0.5 mg/kg/d for 3 months (O0.5 vs O0)) was “significant difference”. For the same compound, the “blood vessel density … vs control group” value [4, 8] was “significant difference”, the “blood vessel density … vs control group” value ([4]; young mice (7 months-old), 0.5 mg/kg/d in drinking water for 3 months (Y0.5 vs Y0)) was “no significant difference” and the “blood vessel density … vs control group” value ([4]; young mice (7 months-old), 2.0 mg/kg/d in drinking water for 3 months (Y2 vs Y0)) was “no significant difference”. The “phosphorylation of VEGFR2 at T1175, T1059 and T1054 vs control group” value [5] was “significantly increased phosphorylation”, the “level of Tie2 gene expression vs control groups” value [6] was “did not change significantly” and the “amount of blood vessels with decreased functionality (Fluorescein-lectin negative)” value [7] was “reduced”.
